Measurements as given in patent US5116832A, “Penem derivatives production and use thereof” (Suntory Limited, priority 1986, dated 1992).

Legend:
[1] = system: E. coli KC-14; experiment: Therapeutic effect on the experimental infection in mice (E. coli KC-14); assay type: in vivo; settings: Escherichia coli, E. coli KC-14 4.8 × 10^5 colony forming unit intraperitoneally, survival 5 days later, male ICR mice
Protocol: Among the novel compounds as obtained according to the present ivention, the compound (27) was used to carry out a therapy experiment with infected animals. With male mice of ICR strain (5-weeks aged, weighing from 23 to 27 g) being employed as an experimental animal, E. coli KC-14 was inoculate intraperitoneally to the mice, and, 2 hours later, the compound (27) was administered subcutaneously or orally.

[2] = system: S. aureus Smith; experiment: Therapeutic effect on the experimental infection in mice (S. aureus Smith); assay type: in vivo; settings: Staphylococcus aureus, sc, 120 h, S. aureus Smith 3.8 × 10^6 colony forming unit, compound subcut.
[3] = Acute toxicity test; settings: mouse, in vivo
Description: Among the novel compounds as obtained according to the present invention, the compound (27) was selected to conduct an acute toxicity test. Mice of ICR strain (4-weeks aged), being used as an experimental animal, were given the compound through oral and intravenous routes.

[4] = target: T1, purified human renal dehydropeptidase (Homo sapiens, UniProt P16444); experiment: Stability test against renal dehydropeptidase; assay type: in vitro ADME; settings: for half-life at 100 µM: human, purified renal dehydropeptidase, pH 7
T1 sequence (P16444 17-411): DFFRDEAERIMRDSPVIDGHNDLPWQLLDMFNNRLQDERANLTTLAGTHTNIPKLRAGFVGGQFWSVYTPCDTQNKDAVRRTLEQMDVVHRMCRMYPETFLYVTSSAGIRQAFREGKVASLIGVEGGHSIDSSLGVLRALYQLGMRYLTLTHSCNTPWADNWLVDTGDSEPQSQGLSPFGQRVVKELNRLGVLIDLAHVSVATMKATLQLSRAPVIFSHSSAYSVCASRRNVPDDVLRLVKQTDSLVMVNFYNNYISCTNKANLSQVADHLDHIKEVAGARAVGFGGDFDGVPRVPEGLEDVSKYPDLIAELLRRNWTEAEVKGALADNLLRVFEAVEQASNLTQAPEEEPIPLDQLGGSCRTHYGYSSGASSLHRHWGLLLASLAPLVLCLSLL
Protocol: Method: 0.325 μ/ml (final concentration) of purified human renal dehydropeptidase and 100 μM (final concentration) of each test compound were heated to 37° C. in 50 mM of Tris/HCl buffer (pH 7.0) and samples were collected at planned hours. Remaining amounts of the compound in the samples were analyzed quantitatively and the half-life period of each compound was calculated.

| Compound | ED50 ([1]; KC14, 120 h, compound oral 2 hours later) | ED50 ([1]; KC14, ip, 120 h, compound subcut. 2 hours later) | ED50 [2] | survival in acute toxicity test ([3]; iv) | survival in acute toxicity test ([3]; po) | stability against renal dehydropeptidase (in words) [4] | half-life at 100 µM [4] | Remaining amount after 9 hours ([4]; 100 μM test compound, human renal dehydropeptidase, 37° C., 50 mM Tris/HCl buffer pH 7.0, 9 hours) |
| --- | --- | --- | --- | --- | --- | --- | --- | --- |
| C[C@@H](O)[C@H]1C(=O)N2C(C(=O)O)=C(CC3CCOC3)S[C@H]12 (stereo partly shown) [Compound 27] | 9.5 mg/kg | 3 mg/kg | 1.11 mg/kg | all found to survive | all found to survive | more stable than Sch 29482 and Imipenem | 3.81 h |  |
| C[C@@H](O)[C@H]1C(=O)N2C(C(=O)O)=C(SCCN=CN)C[C@H]12 [Imipenem] |  |  |  |  |  |  | 3.02 h | 14.7 µg/mL |
| CCSC1=C(C(=O)O)N2C(=O)[C@H]([C@@H](C)O)[C@H]2S1 [Sch 29482] |  |  |  |  |  |  | 1.44 h |  |
